{"source": "patent US9179694B2", "about": "“Method and composition for enhancing milk production and milk component concentrations” (PURINA ANIMAL NUTRITION LLC, priority 2003, dated 2015)", "assay": "Dry matter feed intake in sorbitol feeding trials", "assay_type": "in vivo, Holstein cows", "experimental": "To determine the dry matter weight (or dry matter basis or dry basis) of a particular sample, the sample is first weighed. The weighed sample is then dried in an oven at a temperature that is adequate to drive off moisture from the sample without degrading the sample components, such as a temperature ranging from about 100° C. to about 110° C. The oven drying is continued until the weight of the dried sample remains constant, despite additional oven drying. During the pre-partum period, for all cows utilized in Example One or Example Two, the pre-partum control feed, as modified to include any sorbitol indicated above for the different trials, was placed in the feeding troughs of the different cows participating in the different trials once daily in the morning. Thereafter, these different pre-partum feeds (the pre-partum control feed, including any incorporated sorbitol dosage of a particular trial during the pre-partum period) of the different trials were lightly stirred, separately and individually, in front of the cows of the different trials three times per day during the pre-partum period to encourage additional feed ingestion by the cows. Leftover rations from the previous day's feeding were collected and weighed from each feeding trough during the pre-partum period, prior to feeding the test cows on a subsequent day. The cows of the different trials received a sufficient amount of the pre-partum to ensure at least about ten weight percent of the pre-partum feeds of the different trials remained in the feeding troughs of each trial each day of the pre-partum period, based on the amount of the different pre-partum feeds of the different trials provided at the beginning of each day. Feed refusals were measured daily during the pre-partum period, and water was supplied ad libitum. During the early post-partum period, for all cows utilized in Example One or Example Two, the first post-partum control feed, as modified to include any sorbitol indicated above for the different trials, was placed in the feeding troughs of the different cows participating in the different trials once daily in the morning. Thereafter, these first post-partum feeds (the first post-partum control feed, including any incorporated sorbitol dosage of a particular trial during the early post-partum period) of the different trials were lightly stirred, separately and individually, in front of the cows of the different trials three times per day during the early post-partum period to encourage additional feed ingestion by the cows. Leftover rations from the previous day's feeding were collected and weighed from each feeding trough during the early post-partum period, prior to feeding the test cows on a subsequent day. The cows of the different trials received a sufficient amount of the first post-partum feed to ensure at least about ten weight percent of the first post-partum feeds of the different trials remained in the feeding troughs of each trial each day of the early post-partum period, based on the amount of the different first post-partum feeds of the different trials provided at the beginning of each day. Feed refusals were measured daily during the early post-partum period, and water was supplied ad libitum. […] Thereafter, the second post-partum control feed were lightly stirred, separately and individually, in front of the cows of the different trials three times per day during the weeks +5 through +8 to encourage additional feed ingestion by the cows. Leftover rations from the previous day's feeding were collected and weighed from each feeding trough during weeks +5 through +8, prior to feeding the test cows on a subsequent day. […]", "data": [{"smiles": "OC[C@@H](O)[C@@H](O)[C@H](O)[C@@H](O)CO", "note": "[sorbitol]", "values": [{"measurement": "Dry Matter Feed Intake", "setting": "Pre/Post Trial #1 (150/125/100 g/day in wk −3..−1/+1..+4/+5..+8), multiparious cows, week +7, two-trial comparison with Control Trial #2 (Table 22)", "value": 54.9, "unit": "lbs/day"}, {"measurement": "Dry Matter Intake", "setting": "Pre/Post Trial #1 (150/125/100 g/day in wk −3..−1/+1..+4/+5..+8), multiparious cows, week +8", "value": 57.1, "unit": "lbs/day"}, {"measurement": "Dry Matter Feed Intake", "setting": "Pre/Post Trial #1 (150/125/100 g/day in wk −3..−1/+1..+4/+5..+8), multiparious cows, week +8, two-trial comparison with Control Trial #2 (Table 22)", "value": 57.4, "unit": "lbs/day"}, {"measurement": "Dry Matter Intake", "setting": "Pre/Post Trial #1 (150/125/100 g/day in wk −3..−1/+1..+4/+5..+8), multiparious cows, week −1", "value": 33.3, "unit": "lbs/day"}, {"measurement": "Dry Matter Feed Intake", "setting": "Pre/Post Trial #1 (150/125/100 g/day in wk −3..−1/+1..+4/+5..+8), multiparious cows, week −1, two-trial comparison with Control Trial #2 (Table 22)", "value": 33.4, "unit": "lbs/day"}, {"measurement": "Dry Matter Intake", "setting": "Pre/Post Trial #1 (150/125/100 g/day in wk −3..−1/+1..+4/+5..+8), multiparious cows, week −2", "value": 34.6, "unit": "lbs/day"}, {"measurement": "Dry Matter Feed Intake", "setting": "Pre/Post Trial #1 (150/125/100 g/day in wk −3..−1/+1..+4/+5..+8), multiparious cows, week −2, two-trial comparison with Control Trial #2 (Table 22)", "value": 35.2, "unit": "lbs/day"}, {"measurement": "Change in Dry Matter Feed Intake", "setting": "Pre/Post Trial #1 (150/125/100 g/day in wk −3..−1/+1..+4/+5..+8), multiparious cows, week −2 versus −1", "value": "−1.39", "unit": "lbs/day"}, {"measurement": "Change in Dry Matter Feed Intake", "setting": "Pre/Post Trial #1 (150/125/100 g/day in wk −3..−1/+1..+4/+5..+8), multiparious cows, week −2 versus −1, two-trial comparison with Control Trial #2 (Table 22)", "value": "−1.83", "unit": "lbs/day"}, {"measurement": "Dry Matter Intake", "setting": "Pre/Post Trial #1 (150/125/100 g/day in wk −3..−1/+1..+4/+5..+8), multiparious cows, week −3", "value": 29.6, "unit": "lbs/day"}, {"measurement": "Dry Matter Feed Intake", "setting": "Pre/Post Trial #1 (150/125/100 g/day in wk −3..−1/+1..+4/+5..+8), multiparious cows, week −3, two-trial comparison with Control Trial #2 (Table 22)", "value": 30.7, "unit": "lbs/day"}, {"measurement": "Dry Matter Intake", "setting": "Pre/Post Trial #1 (150/125/100 g/day in wk −3..−1/+1..+4/+5..+8), multiparious cows, weeks +1 through +4", "value": 45.4, "unit": "lbs/day"}, {"measurement": "Dry Matter Feed Intake", "setting": "Pre/Post Trial #1 (150/125/100 g/day in wk −3..−1/+1..+4/+5..+8), multiparious cows, weeks +1 through +4, two-trial comparison with Control Trial #2 (Table 22)", "value": 45.7, "unit": "lbs/day"}, {"measurement": "Dry Matter Intake", "setting": "Pre/Post Trial #1 (150/125/100 g/day in wk −3..−1/+1..+4/+5..+8), multiparious cows, weeks +1 through +8", "value": 50.1, "unit": "lbs/day"}, {"measurement": "Dry Matter Feed Intake", "setting": "Pre/Post Trial #1 (150/125/100 g/day in wk −3..−1/+1..+4/+5..+8), multiparious cows, weeks +1 through +8, two-trial comparison with Control Trial #2 (Table 22)", "value": 50.4, "unit": "lbs/day"}, {"measurement": "Dry Matter Intake", "setting": "Pre/Post Trial #1 (150/125/100 g/day in wk −3..−1/+1..+4/+5..+8), multiparious cows, weeks +5 through +8", "value": 54.9, "unit": "lbs/day"}, {"measurement": "Dry Matter Feed Intake", "setting": "Pre/Post Trial #1 (150/125/100 g/day in wk −3..−1/+1..+4/+5..+8), multiparious cows, weeks +5 through +8, two-trial comparison with Control Trial #2 (Table 22)", "value": 55.3, "unit": "lbs/day"}, {"measurement": "Dry Matter Intake", "setting": "Pre/Post Trial #1 (150/125/100 g/day in wk −3..−1/+1..+4/+5..+8), multiparious cows, weeks −3 through −1", "value": 32.6, "unit": "lbs/day"}, {"measurement": "Dry Matter Feed Intake", "setting": "Pre/Post Trial #1 (150/125/100 g/day in wk −3..−1/+1..+4/+5..+8), multiparious cows, weeks −3 through −1, two-trial comparison with Control Trial #2 (Table 22)", "value": 33.0, "unit": "lbs/day"}, {"measurement": "greater increase of dry matter feed intake", "setting": "Pre/Post Trial #1 (150/125/100 g/day) compared to Control Trial #2, multiparous cows, week −1 before calving versus week +1 after calving", "value": 3.19, "unit": "pounds per day"}, {"measurement": "greater daily rate of dry matter feed intake", "setting": "Pre/Post Trial #1 (150/125 g/day pre-/early post-partum) versus Pre/Post Trial #2 (75/75 g/day), multiparious cows, early post-partum period (weeks +1 through +4)", "value": 7.6, "unit": "%"}, {"measurement": "Dry Matter Intake", "setting": "Pre/Post Trial #2 (75/75/100 g/day in wk −3..−1/+1..+4/+5..+8), multiparious cows, week +1", "value": 33.1, "unit": "lbs/day"}, {"measurement": "Change in Dry Matter Feed Intake", "setting": "Pre/Post Trial #2 (75/75/100 g/day in wk −3..−1/+1..+4/+5..+8), multiparious cows, week +1 versus −1", "value": 0.72, "unit": "lbs/day"}, {"measurement": "Dry Matter Intake", "setting": "Pre/Post Trial #2 (75/75/100 g/day in wk −3..−1/+1..+4/+5..+8), multiparious cows, week +2", "value": 41.2, "unit": "lbs/day"}, {"measurement": "Dry Matter Intake", "setting": "Pre/Post Trial #2 (75/75/100 g/day in wk −3..−1/+1..+4/+5..+8), multiparious cows, week +3", "value": 45.3, "unit": "lbs/day"}, {"measurement": "Dry Matter Intake", "setting": "Pre/Post Trial #2 (75/75/100 g/day in wk −3..−1/+1..+4/+5..+8), multiparious cows, week +4", "value": 49.8, "unit": "lbs/day"}, {"measurement": "Dry Matter Intake", "setting": "Pre/Post Trial #2 (75/75/100 g/day in wk −3..−1/+1..+4/+5..+8), multiparious cows, week +5", "value": 53.6, "unit": "lbs/day"}, {"measurement": "Dry Matter Intake", "setting": "Pre/Post Trial #2 (75/75/100 g/day in wk −3..−1/+1..+4/+5..+8), multiparious cows, week +6", "value": 54.2, "unit": "lbs/day"}, {"measurement": "Dry Matter Intake", "setting": "Pre/Post Trial #2 (75/75/100 g/day in wk −3..−1/+1..+4/+5..+8), multiparious cows, week +7", "value": 53.3, "unit": "lbs/day"}, {"measurement": "Dry Matter Intake", "setting": "Pre/Post Trial #2 (75/75/100 g/day in wk −3..−1/+1..+4/+5..+8), multiparious cows, week +8", "value": 55.0, "unit": "lbs/day"}, {"measurement": "Dry Matter Intake", "setting": "Pre/Post Trial #2 (75/75/100 g/day in wk −3..−1/+1..+4/+5..+8), multiparious cows, week −1", "value": 32.3, "unit": "lbs/day"}, {"measurement": "Dry Matter Intake", "setting": "Pre/Post Trial #2 (75/75/100 g/day in wk −3..−1/+1..+4/+5..+8), multiparious cows, week −2", "value": 36.3, "unit": "lbs/day"}, {"measurement": "Change in Dry Matter Feed Intake", "setting": "Pre/Post Trial #2 (75/75/100 g/day in wk −3..−1/+1..+4/+5..+8), multiparious cows, week −2 versus −1", "value": "−3.91", "unit": "lbs/day"}, {"measurement": "Dry Matter Intake", "setting": "Pre/Post Trial #2 (75/75/100 g/day in wk −3..−1/+1..+4/+5..+8), multiparious cows, week −3", "value": 31.9, "unit": "lbs/day"}, {"measurement": "Dry Matter Intake", "setting": "Pre/Post Trial #2 (75/75/100 g/day in wk −3..−1/+1..+4/+5..+8), multiparious cows, weeks +1 through +4", "value": 42.2, "unit": "lbs/day"}, {"measurement": "Dry Matter Intake", "setting": "Pre/Post Trial #2 (75/75/100 g/day in wk −3..−1/+1..+4/+5..+8), multiparious cows, weeks +1 through +8", "value": 48.2, "unit": "lbs/day"}, {"measurement": "Dry Matter Intake", "setting": "Pre/Post Trial #2 (75/75/100 g/day in wk −3..−1/+1..+4/+5..+8), multiparious cows, weeks +5 through +8", "value": 54.1, "unit": "lbs/day"}, {"measurement": "Dry Matter Intake", "setting": "Pre/Post Trial #2 (75/75/100 g/day in wk −3..−1/+1..+4/+5..+8), multiparious cows, weeks −3 through −1", "value": 33.2, "unit": "lbs/day"}, {"measurement": "decrease in dry matter feed intake", "setting": "average of means of Pre-Partum Trial #2, Pre/Post Trial #1 and Pre/Post Trial #2 versus Control Trial #2, multiparious cows, pre-partum period (weeks −3 through −1)", "value": 4.9, "unit": "%"}]}]}
